Reference: ChEMBL document CHEMBL2331161, “Structure-guided design, synthesis and in vitro evaluation of a series of pyrazole-based fatty acid binding protein (FABP) 3 ligands” (Bioorg Med Chem Lett, 2013)

Experiments:
[1] = target: Fatty acid-binding protein, adipocyte (Homo sapiens, UniProt P15090)
[2] = target: T1, Fatty acid-binding protein, heart (Homo sapiens, UniProt P05413)
Description: Inhibition of human FABP3 by 8-anilino-1-naphthalenesulfonic acid based fluorescence displacement assay

[3] = target: T1, Fatty acid-binding protein, heart; experiment: Binding affinity to human FABP3 by surface plasmon resonance assay

T1 sequence (P05413 whole entry): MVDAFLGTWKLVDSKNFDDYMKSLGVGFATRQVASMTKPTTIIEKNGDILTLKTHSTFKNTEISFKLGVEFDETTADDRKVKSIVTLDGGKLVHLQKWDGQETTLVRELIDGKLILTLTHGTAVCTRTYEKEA
Fatty acid-binding protein, adipocyte, sequence (P15090 whole entry): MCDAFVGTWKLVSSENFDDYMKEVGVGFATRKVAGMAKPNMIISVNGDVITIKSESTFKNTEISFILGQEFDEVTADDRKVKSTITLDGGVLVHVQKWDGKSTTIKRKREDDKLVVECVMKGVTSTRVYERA

| IC50 ([1]; read-out: IC50) [µM] | IC50 [2] [µM] | Kd [3] [µM] | IC50 [1] | Compound |
| --- | --- | --- | --- | --- |
| 0.987 | > 10000 | – | – | O=C(O)COc1cccc(-c2ccccc2-c2cc(-c3ccccc3)n(-c3ccccc3)n2)c1 |
| 259 | > 10000 | – | – | Cc1ccc(-c2cc(-c3ccccc3OCCCCC(=O)O)nn2-c2ccccc2)cc1 |
| 23.5 | 5.26 | – | – | O=C(O)CCCOc1ccccc1-c1cc(-c2ccccc2)n(C2CCCCC2)n1 |
| 15.5 | 6.47 | – | – | O=C(O)CCCOc1ccccc1-c1cc(-c2ccccc2)n(C2CCCCCC2)n1 |
| > 10000 | > 10000 | – | – | O=C(O)COc1ccccc1-c1cc(-c2ccc(Cl)cc2)n(-c2ccccc2)n1 |
| 6.13 | 21 | – | – | O=C(O)CCCOc1ccccc1-c1cc(-c2ccc(Cl)cc2)n(-c2ccccc2)n1 |
| 74 | 243 | – | – | O=C(O)CCCCOc1ccccc1-c1cc(-c2ccc(Cl)cc2)n(-c2ccccc2)n1 |
| 31 | > 10000 | – | – | O=C(O)CCCCCCOc1ccccc1-c1cc(-c2ccc(Cl)cc2)n(-c2ccccc2)n1 |
| 5.41 | 4730 | – | – | Cc1ccc(-c2cc(-c3ccccc3OCCCC(=O)O)nn2-c2ccccc2)cc1 |
| 9.51 | 224 | – | – | O=C(O)CCCOc1ccccc1-c1cc(-c2ccc(Br)cc2)n(-c2ccccc2)n1 |
| 3.02 | 2.01 | 16.3 | – | O=C(O)CCCOc1ccccc1-c1cc(-c2ccccc2)n(-c2ccccc2)n1 |
| 6.39 | > 10000 | – | – | O=C(O)CCCCOc1ccccc1-c1cc(-c2ccccc2)n(-c2ccccc2)n1 |
| 86 | 22.3 | – | – | O=C(O)CCCCOc1ccccc1-c1cc(-c2ccc(Br)cc2)n(-c2ccccc2)n1 |
| – | 1.14 | 5.26 | – | O=C(O)CCCOc1ccccc1-c1cc(-c2ccccc2)n(-c2ccc(F)cc2)n1 |
| 4.32 | 0.733 | 2.17 | – | O=C(O)CCCOc1ccccc1-c1cc(-c2ccccc2)n(-c2ccc(Cl)cc2)n1 |
| 10.3 | – | – | – | CC(C)c1ccc(-n2nc(-c3ccccc3OCCCC(=O)O)cc2-c2ccccc2)cc1 |
| 13.6 | 1.65 | – | – | COc1ccc(-n2nc(-c3ccccc3OCCCC(=O)O)cc2-c2ccccc2)cc1 |
| 4.27 | 1.16 | – | – | O=C(O)CCCOc1ccccc1-c1cc(-c2ccccc2)n(-c2ccccc2Cl)n1 |
| – | 505 | – | Not Active | COc1ccccc1-n1nc(-c2ccccc2OCCCC(=O)O)cc1-c1ccccc1 |
| 2.5 | – | – | – | O=C(O)CCCOc1ccccc1-c1cc(-c2ccccc2)n(-c2cccc(Cl)c2)n1 |
| 16.6 | 6.03 | – | – | O=C(O)CCCOc1ccccc1-c1cc(-c2ccccc2)n(C2CCCC2)n1 |
